We go through two molecules from publication PMC5841658, “Anti-cancer characteristics and ototoxicity of platinum(II) amine complexes with only one leaving ligand” (PLoS ONE, 2018).

The test system of data set [1] is zebrafish saccule hair cells. The data set can be described thus: Hair cell quantification, saccule. The class given is in vivo, Danio rerio. To be noted: 25 mg/kg i.p., 48 hours; for effect on hair cell density in four regions of the saccule compared to vehicle: 5, 25, 50, 75% regions. The procedure: (§1) Zebrafish (Danio rerio) were purchased from a commercial supplier (Segrest Farms, Gibsonton, FL) and maintained in the animal facility of Western Kentucky University according to a protocol approved by the Institutional Animal Care and Use Committee. All zebrafish used in this study were a mix of male and female adult animals at least 6 months of age and were maintained according to standard methods.
After injection, fish were returned to holding tanks for either 24 or 48 hours and then subjected to hearing tests followed by hair cell quantification analysis.
Hair cell counts were performed from specific regions of the zebrafish saccule and utricle using established procedures. […] Prior to dissection, heads were rinsed three times for 10 minutes each at room temperature in phosphate buffer (pH 7.4, LabChem, Pittsburgh, PA) and the inner ear epithelia (saccule and utricle) were then carefully dissected out and trimmed. […] Tissue samples were then placed on glass slides and nuclei were labelled with Prolong Gold antifade reagent (4’,6-diamidino-2-phenylindole [DAPI], Life Technologies, Carlsbad, CA) and a cover-slip was placed over the samples for microscopy.
Saccule and utricle samples were viewed through the FITC filter of a Zeiss Axioplan2 epifluorescence microscope (Carl Zeiss, Jena, Germany) at 20X magnification and were then photographed using an AxioCam MRm camera. Cell counts were made from four regions of the saccule (5%, 25%, 50%, 75%) along the rostral-caudal length of the organ by placing a 50 μm x 50 μm box at each location and using the microscope cell counter feature. In the utricular samples, cell counts were made from three equidistant 50 μm x 50 μm boxes in both the extrastriolar and striolar regions.
(§2) GraphPad Prism v6 (La Jolla, CA) was used for all statistical analysis. Nuclear fraction platinum uptake as a total percent of combined nuclear and cytosolic uptake was analyzed using a one-way ANOVA (Brown-Forsyth test; p ≤ 0.05). IC50 values were calculated in Prism using the sigmoidal, 4PL, x is log(concentration) analysis feature or were calculated from Prism derived values using the equation y = mx + b. MTT assay standard deviation values were calculated using ED50plus v1.0 online software. AEP threshold data were analyzed by two-way ANOVA (Dunnett’s multiple comparisons test; p ≤ 0.05) and hair cell quantification data by two-way ANOVA (Tukey’s multiple comparisons test; p ≤ 0.05). AEP temporary threshold shifts (TTS) were calculated by subtracting the mean vehicle threshold for each frequency from each treatment threshold. TTS data were averaged across frequencies for each treatment and were analyzed by one-way ANOVA (Tukey’s multiple comparisons test; p ≤ 0.05).

The test system of data set [2] is Caco-2 colorectal cancer cell line. The data set can be described thus: MTT cellular viability assay, Caco2. To be noted: 72 hours, ± standard deviation. The class given is cell-based. The procedure: (§3) Cell lines were obtained from American Type Culture Collection (ATCC, Manassas, VA). […] Caco-2 (ATCC: HTB-37) colorectal cancer was grown in EMEM with 20% FBS and 1% penicillin/streptomycin. All cell lines were incubated at 37°C in 5% CO2 with passaging every 4–7 days. Cell culture media and supplements were obtained from ATCC, Atlanta Biologicals (Flowery Branch, GA), Mediatech (Tewksbury, MA), Fisher Scientific (Waltham, MA), Gibco (Gaithersburg, MD) and Sigma-Aldrich.
(§4) The MTT (3-(4,5-dimethylthiazol-2-yl)-2,5-diphenyltetrazolium bromide) cellular viability assay was performed in all three cancer cell lines and the non-cancer cell line. Following a protocol adapted from, cells were seeded at 5,000 cells per well in 96-well plates and incubated at 37°C in 5% CO2 in F-12K Medium or EMEM with FBS supplementation and 1% penicillin/streptomycin for 24 hours. Then, wells were treated in replicates of six according to a concentration series (500, 50, 5, 0.5, 0.05 μM) of specific platinum complexes for 72 hours. A negative control (media only), positive control (Triton X-100) and series of blanks were simultaneously performed. The MTT assay was run for 2 hours, then well contents were rapidly evacuated out and all wells were treated with MTT solubilization solution [10% Triton X-100 in acidic (0.1N HCl) isopropanol] for 15 minutes before the plates were read using a BioTek Synergy HT microplate plate reader (570 nm and 690 nm absorbance wavelengths). Reagents, cell culture media and supplements were obtained from ATCC, Atlanta Biologicals, Mediatech, Fisher Scientific, Gibco and Sigma-Aldrich.
as §2
(Tetrazolium dyes change colour on reduction, which living cells bring about.)

Data set [3] concerns A549 lung cancer cell line. The experiment in a line: MTT cellular viability assay, A549. To be noted: 72 hours, ± standard deviation. The class given is cell-based. The method, then:
as §3, §4, §2

Data set [4] has as its system zebrafish utricle hair cells. The experiment in a line: Hair cell quantification, utricle. The class given is in vivo, Danio rerio. To be noted: extrastriolar (E1-E3) and striolar (S1-S3) regions, 25 mg/kg i.p., 48 hours.
Description: as §1
Zebrafish were sedated with tricaine methanesulfonate (MS-222, Argent, Redmond, WA), weighed, and then intraperitoneally microinjected with 25 mg/kg body weight of platinum test compound or an equivalent volume of vehicle (0.9% NaCl) control using a 35 gauge syringe operated by a Micro4 microsyringe pump controller (World Precision Instruments, Sarasota, FL). After injection, fish were returned to holding tanks for either 24 or 48 hours and then subjected to hearing tests followed by hair cell quantification analysis. […]
GraphPad Prism v6 (La Jolla, CA) was used for all statistical analysis. Nuclear fraction platinum uptake as a total percent of combined nuclear and cytosolic uptake was analyzed using a one-way ANOVA (Brown-Forsyth test; p ≤ 0.05). IC50 values were calculated in Prism using the sigmoidal, 4PL, x is log(concentration) analysis feature or were calculated from Prism derived values using the equation y = mx + b. […]

For data set [5], the system named is A549, Caco2, HTB16 and IMR90 cell lines. The experiment in a line: MTT cellular viability assay, comparison over all cell lines. The class given is cell-based. To be noted: in our cell lines (Table 2). The procedure: Cell lines were obtained from American Type Culture Collection (ATCC, Manassas, VA). The A549 (ATCC: CCL-185) lung cancer cell line was grown in F12K media with 10% FBS and 1% penicillin/streptomycin supplementation. Both the U-138 MG (ATCC: HTB-16) glioblastoma cancer cell line and IMR-90 (ATCC: CCL-186) lung fibroblast control cell line were grown in Eagle’s Minimum Essential Medium (EMEM) with supplementation as in A549. Caco-2 (ATCC: HTB-37) colorectal cancer was grown in EMEM with 20% FBS and 1% penicillin/streptomycin. All cell lines were incubated at 37°C in 5% CO2 with passaging every 4–7 days. […]
The MTT (3-(4,5-dimethylthiazol-2-yl)-2,5-diphenyltetrazolium bromide) cellular viability assay was performed in all three cancer cell lines and the non-cancer cell line. […] The MTT assay was run for 2 hours, then well contents were rapidly evacuated out and all wells were treated with MTT solubilization solution [10% Triton X-100 in acidic (0.1N HCl) isopropanol] for 15 minutes before the plates were read using a BioTek Synergy HT microplate plate reader (570 nm and 690 nm absorbance wavelengths). […]
GraphPad Prism v6 (La Jolla, CA) was used for all statistical analysis. Nuclear fraction platinum uptake as a total percent of combined nuclear and cytosolic uptake was analyzed using a one-way ANOVA (Brown-Forsyth test; p ≤ 0.05). […]

As a reminder, the IC50 is the concentration needed to halve the response being measured.

In the case of `[Cl][Pt-2]12[NH2+]CC[NH+]1CC[NH2+]2` (centres unmarked) [[Pt(dien)Cl]^+, Pt(diethylenetriamine)Cl], the “effect on hair cell density in four regions of the saccule compared to vehicle” value in data set [1] is listed as “no significant reduction in hair cell bundles”. Also, the figures for the IC50 in data set [2] and in data set [3] were 41.5 ± 0.72 µM and 198 ± 4.8 µM, respectively. Moreover, in data set [4], the “effect on utricle hair cell density compared to vehicle” value is “one elevated mean hair cell density count at S2”.
Regarding phenanthriplatin, the “effect on hair cell density in four regions of the saccule compared to vehicle” value in data set [1] is “reduction only at 50%”. Moreover, the “saccule hair cell density, % of control” value in data set [1] (50% location along rostral-caudal axis) was 64.8 % of control. The IC50 in data set [2] worked out at 1.6 ± 1.22 µM. In data set [5], the “factor by which cellular viability is reduced more than by pyriplatin” value is “at least 10”.
